Here are results for three molecules from article PMC3712578, “Luteolin is a novel p90 ribosomal S6 kinase (RSK) inhibitor that suppresses Notch4 signaling by blocking the activation of Y-box binding protein-1 (YB-1)” (Oncotarget, 2013).

The target in assay [1] is T1, RSK2 (Homo sapiens, UniProt P51812).
T1 construct: gene RPS6KA3
In words: in vitro RSK2 kinase assay, YB-1 peptide substrate. In kind it is biochemical.

Assay [2] has as its target T2, RSK1 (Homo sapiens, UniProt Q15418).
T2 construct: gene RPS6KA1
In words: biochemical. On the set-up: In vitro RSK1 kinase assay with S6K peptide substrate, dose-response 0.001-100 uM.

In assay [3] the target is T1, RSK2. In words: biochemical. Also noted: In vitro RSK2 kinase assay with S6K peptide substrate, dose-response 0.001-100 uM (SignalChem). The procedure:
Following the RSK1 screen, a broad dose-response study (0.001-100 μM) was conducted against RSK2 using the YB-1 peptide as a substrate in cell-free assays (Table 2). […] Kinase profiling services for RSK2 were provided by SignalChem, as previously described. […] To confirm inhibition of RSK2 activity, we also repeated the kinase assay with a secondary RSK substrate, S6K.

Assay [4] addresses T2, RSK1. Kind of assay: in vitro RSK1 kinase assay, YB-1 peptide ([…] screen) and S6K peptide dose response. In kind it is biochemical.
[5] abbreviates: read-out: Inhibition of RSK2 (%) against the YB-1 peptide as the substrate / IC50.

T1 sequence (P51812 whole entry): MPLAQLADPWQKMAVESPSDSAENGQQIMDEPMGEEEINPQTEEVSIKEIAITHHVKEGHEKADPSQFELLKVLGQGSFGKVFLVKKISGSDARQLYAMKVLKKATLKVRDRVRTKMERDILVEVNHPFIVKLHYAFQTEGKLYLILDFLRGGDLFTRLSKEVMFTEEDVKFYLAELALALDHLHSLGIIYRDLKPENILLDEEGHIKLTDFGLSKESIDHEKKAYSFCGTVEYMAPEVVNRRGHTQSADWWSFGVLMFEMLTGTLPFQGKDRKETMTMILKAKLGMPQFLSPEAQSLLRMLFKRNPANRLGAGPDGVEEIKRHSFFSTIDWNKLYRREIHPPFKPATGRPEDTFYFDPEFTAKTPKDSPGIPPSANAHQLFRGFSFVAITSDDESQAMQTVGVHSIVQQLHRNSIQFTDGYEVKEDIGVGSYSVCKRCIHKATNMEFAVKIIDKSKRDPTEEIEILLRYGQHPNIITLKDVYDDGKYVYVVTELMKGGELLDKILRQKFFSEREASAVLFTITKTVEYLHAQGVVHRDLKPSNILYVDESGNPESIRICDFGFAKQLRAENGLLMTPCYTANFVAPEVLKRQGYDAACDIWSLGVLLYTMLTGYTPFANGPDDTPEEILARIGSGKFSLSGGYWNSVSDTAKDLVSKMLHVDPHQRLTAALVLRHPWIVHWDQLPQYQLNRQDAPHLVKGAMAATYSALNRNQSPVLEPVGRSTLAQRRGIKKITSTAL
T2 sequence (Q15418 whole entry): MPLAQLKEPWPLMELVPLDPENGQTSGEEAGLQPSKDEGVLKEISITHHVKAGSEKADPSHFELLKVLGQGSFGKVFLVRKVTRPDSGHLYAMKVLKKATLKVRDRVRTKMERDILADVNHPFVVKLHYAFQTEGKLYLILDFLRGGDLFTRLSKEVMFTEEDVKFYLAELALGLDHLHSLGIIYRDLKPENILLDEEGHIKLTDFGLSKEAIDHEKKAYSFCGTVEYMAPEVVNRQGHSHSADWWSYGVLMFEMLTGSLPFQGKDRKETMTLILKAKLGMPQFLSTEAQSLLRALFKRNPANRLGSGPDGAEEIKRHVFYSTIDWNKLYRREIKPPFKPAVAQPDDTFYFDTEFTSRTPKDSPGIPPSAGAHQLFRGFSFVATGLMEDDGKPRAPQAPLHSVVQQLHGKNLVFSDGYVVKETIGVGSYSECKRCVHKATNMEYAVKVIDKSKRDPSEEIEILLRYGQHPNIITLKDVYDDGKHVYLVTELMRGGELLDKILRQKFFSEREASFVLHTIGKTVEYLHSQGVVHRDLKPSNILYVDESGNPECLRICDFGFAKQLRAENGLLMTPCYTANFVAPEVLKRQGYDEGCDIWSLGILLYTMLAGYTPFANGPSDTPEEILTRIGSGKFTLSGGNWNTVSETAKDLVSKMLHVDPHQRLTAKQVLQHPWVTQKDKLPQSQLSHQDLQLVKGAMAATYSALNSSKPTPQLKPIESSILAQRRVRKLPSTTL

On to `O=c1cc(-c2ccc(O)cc2)oc2cc(O)cc(O)c12` [Apigenin], for which the IC50 stood at 4.77 µM at RSK2 [1], 3780 nM against RSK1 [2] and 3480 nM against RSK2 [3].
For `O=c1c(O)c(-c2ccc(O)cc2)oc2cc(O)cc(O)c12` [Kaempferol], the “in vitro RSK1 kinase assay, YB-1 peptide (10 μM screen) and S6K peptide dose res” value at RSK1 [4] is listed as “all three compounds inhibited the kinase activity of both isoforms in the low micromolar range”. Moreover, the IC50 at RSK2 [1] (setting [5]) worked out at 1.71 µM; against RSK1 [2], 1480 nM; against RSK2 [3], 760 nM.
Take `O=c1cc(-c2ccc(O)c(O)c2)oc2cc(O)cc(O)c12` [Luteolin]: the “in vitro RSK1 kinase assay, YB-1 peptide (10 μM screen) and S6K peptide dose res” value on RSK1 [4] is reported as “all three compounds inhibited the kinase activity of both isoforms in the low micromolar range”. Also, the IC50 at RSK2 [1] (setting [5]) turned out to be 4.42 µM; against RSK1 [2], 2250 nM.
